# Measured values published in patent publication US8461205B2, “Anthranilic acid derivatives” (Chelsea Therapeutics, Inc., priority 2007, dated 2013).
# System: human T lymphoblast cell line (Jurkat)
# Assay: Inhibition of T-cell proliferation (Jurkat, 3H-TdR incorporation)
# Assay type: cell-based
# Conditions: Homo sapiens; Jurkat cells, 3 days culture, 3H-TdR pulse last 4 hours
# Method: Inhibition of T cell proliferation was studied in a functional assay. A human T lymphoblast cell line (Jurkat) was cultured in the presence and absence, respectively, of DHODH inhibiting compounds. Jurkat cells were seeded in microtiterplates at a concentration of 5×10^5/mL in RPMI 1640 growth media supplemented with ultraglutamin, 10% fetal calf serum, 1 mM sodium pyruvat, 10 mM HEPES and 0.1 mg/mL gentamycin. A dilution series of ten different concentrations of inhibitor was added to the wells and the plates were kept in a cell incubator for 3 days. At the beginning of the last 4 hours period, the cultures were pulsed with 10 μl/well 0.1 Ci/mmol 3H-TdR and then harvested on filter papers and counted with a ([…]. The IC50 values for each compound were calculated from the obtained dose response curves. Adding uridine to a concentration of about 50 μM in the wells monitored the specificity for the mechanism i.e., the inhibition of cell proliferation is due to DHODH inhibition and not to a general cell toxicity of the compounds. This addition of uridine reverses the anti-proliferative effect by bypassing the DHODH enzyme using an external source of pyrimidine. Results in respect of a number of compounds of the invention are reported as Jurkat IC50 (in μM) in Table 1.
# (§1) The inhibition of T cell proliferation was studied in a human T lymphoblast cell line (Jurkat). The IC50 value for each compound was calculated from the dose response curve. Adding uridine was used to monitor the specificity of the DHODH mechanism. The metabolic stability was studied in human liver microsomes. Table 1 exemplifies the invention, without limiting the scope thereof.
row,Structure (SMILES),IC50 [nM]
1,"CCC(=O)Nc1ccc(COc2ccc(C(F)(F)F)cc2C(F)(F)F)cc1C(=O)O [INV 1, 5-(2,4-Bis-trifluoromethyl-phenoxymethyl)-2-propionylamino-benzoic acid]",600
2,"CCC(=O)Nc1ccc(COc2ccc(F)cc2C(F)(F)F)cc1C(=O)O [INV 2, 5-(4-Fluoro-2-trifluoromethyl-phenoxymethyl)-2-propionylamino-benzoic acid]",580
3,"CCC(=O)Nc1ccc(COc2ccc(Br)cc2C(F)(F)F)cc1C(=O)O [INV 3, 5-(4-Bromo-2-trifluoromethyl-phenoxymethyl)-2-propionylamino-benzoic acid]",470
4,"CCC(=O)Nc1ccc(COc2ccc(C(F)(F)F)cc2Cl)cc1C(=O)O [INV 4, 5-(2-Chloro-4-trifluoromethyl-phenoxymethyl)-2-propionylamino-benzoic acid]",420
5,"CCC(=O)Nc1ccc(COc2ccc(F)cc2Cl)cc1C(=O)O [INV 5, 5-(2-Chloro-4-fluoro-phenoxymethyl)-2-propionylamino-benzoic acid]",190
6,"CCC(=O)Nc1ccc(COc2ccc(Cl)cc2Cl)cc1C(=O)O [INV 6, 5-(2,4-Dichloro-phenoxymethyl)-2-propionylamino-benzoic acid]",350
7,"CCC(=O)Nc1ccc(COc2ccc(C(F)(F)F)cc2Br)cc1C(=O)O [INV 7, 5-(2-Bromo-4-trifluoromethyl-phenoxymethyl)-2-propionylamino-benzoic acid]",490
8,"CCC(=O)Nc1ccc(COc2ccc(F)cc2Br)cc1C(=O)O [INV 8, 5-(2-Bromo-4-fluoro-phenoxymethyl)-2-propionylamino-benzoic acid]",360
9,"CCC(=O)Nc1ccc(COc2ccc(Cl)cc2Br)cc1C(=O)O [INV 9, 5-(2-Bromo-4-chloro-phenoxymethyl)-2-propionylamino-benzoic acid]",240
10,"CCC(=O)Nc1ccc(COc2ccc(OC(F)(F)F)cc2Cl)cc1C(=O)O [INV 10, 5-(2-Chloro-4-trifluoromethoxy-phenoxymethyl)-2-propionylamino-benzoic acid]",240
11,"CCC(=O)Nc1ccc(/C=C/c2ccc(C(F)(F)F)cc2C(F)(F)F)cc1C(=O)O [INV 11, 5-[(E)-2-(2,4-Bis-trifluoromethyl-phenyl)-vinyl]-2-propionylamino-benzoic acid]",90
12,"CCC(=O)Nc1ccc(/C=C/c2ccc(F)cc2C(F)(F)F)cc1C(=O)O [INV 12, 5-[(E)-2-(4-Fluoro-2-trifluoromethyl-phenyl)-vinyl]-2-propionylamino-benzoic acid]",160
13,"CCC(=O)Nc1ccc(/C=C/c2ccc(Cl)cc2C(F)(F)F)cc1C(=O)O [INV 13, 5-[(E)-2-(4-Chloro-2-trifluoromethyl-phenyl)-vinyl]-2-propionylamino-benzoic acid]",50
14,"CCC(=O)Nc1ccc(/C=C/c2ccc(F)cc2F)cc1C(=O)O [INV 14, 5-[(E)-2-(2,4-Difluoro-phenyl)-vinyl]-2-propionylamino-benzoic acid]",240
15,"CCC(=O)Nc1ccc(/C=C/c2ccc(F)cc2Cl)cc1C(=O)O [INV 15, 5-[(E)-2-(2-Chloro-4-fluoro-phenyl)-vinyl]-2-propionylamino-benzoic acid]",35
16,"CCC(=O)Nc1ccc(/C=C/c2ccc(Cl)cc2Cl)cc1C(=O)O [INV 16, 5-[(E)-2-(2,4-Dichloro-phenyl)-vinyl]-2-propionylamino-benzoic acid]",20
17,"CCC(=O)Nc1ccc(COc2ccc(F)c(C(F)(F)F)c2)cc1C(=O)O [INV 17, 5-(4-Fluoro-3-trifluoromethyl-phenoxymethyl)-2-propionylamino-benzoic acid]",530
18,"CCC(=O)Nc1ccc(COc2ccc(Cl)c(C(F)(F)F)c2)cc1C(=O)O [INV 18, 5-(4-Chloro-3-trifluoromethyl-phenoxymethyl)-2-propionylamino-benzoic acid]",840
19,"CCC(=O)Nc1ccc(COc2ccc(F)c(Cl)c2)cc1C(=O)O [INV 19, 5-(3-Chloro-4-fluoro-phenoxymethyl)-2-propionylamino-benzoic acid]",420
20,"CCC(=O)Nc1ccc(COc2ccc(Br)c(Cl)c2)cc1C(=O)O [INV 20, 5-(4-Bromo-3-chloro-phenoxymethyl)-2-propionylamino-benzoic acid]",730
21,"CCC(=O)Nc1ccc(COc2ccc(OC(F)(F)F)c(Cl)c2)cc1C(=O)O [INV 21, 5-(3-Chloro-4-trifluoromethoxy-phenoxymethyl)-2-propionylamino-benzoic acid]",890
22,"CCC(=O)Nc1ccc(COc2ccc(OC(F)(F)F)c(Br)c2)cc1C(=O)O [INV 22, 5-(3-Bromo-4-trifluoromethoxy-phenoxymethyl)-2-propionylamino-benzoic acid]",710
23,"CCC(=O)Nc1ccc(/C=C/c2ccc(F)c(C(F)(F)F)c2)cc1C(=O)O [INV 23, 5-[(E)-2-(4-Fluoro-3-trifluoromethyl-phenyl)-vinyl]-2-propionylamino-benzoic acid]",750
24,"CCC(=O)Nc1ccc(/C=C/c2ccc(Cl)c(C(F)(F)F)c2)cc1C(=O)O [INV 24, 5-[(E)-2-(4-Chloro-3-trifluoromethyl-phenyl)-vinyl]-2-propionylamino-benzoic acid]",570
25,"CCC(=O)Nc1ccc(/C=C/c2ccc(C(F)(F)F)c(F)c2)cc1C(=O)O [INV 25, 5-[(E)-2-(3-Fluoro-4-trifluoromethyl-phenyl)-vinyl]-2-propionylamino-benzoic acid]",740
26,"CCC(=O)Nc1ccc(/C=C/c2ccc(F)c(Cl)c2)cc1C(=O)O [INV 26, 5-[(E)-2-(3-Chloro-4-fluoro-phenyl)-vinyl]-2-propionylamino-benzoic acid]",750
27,"CCC(=O)Nc1ccc(/C=C/c2ccc(OC(F)(F)F)c(Cl)c2)cc1C(=O)O [INV 28, 5-[(E)-2-(3-Chloro-4-trifluoromethoxy-phenyl)-vinyl]-2-propionylamino-benzoic acid]",600
28,"COc1ccc(OC)c(CCc2ccc(NC(C)=O)c(C(=O)O)c2)c1 [REF 9, 2-acetylamino-5-[2-(2,5-dimethoxy-phenyl)-ethyl]-benzoic acid, reference compound]",12000
29,"CCC(=O)Nc1ccc(OCc2ccccc2C(F)(F)F)cc1C(=O)OC [REF 10, 2-Propionylamino-5-(2-trifluoromethyl-benzyloxy)-benzoic acid methyl ester, reference compound]",12300

# Same assay, conditions: Jurkat, cf. Table 1
row,Structure (SMILES),inhibitory effect on T-cell proliferation (in words)
1,"COc1ccc(OC)c(CCc2ccc(NC(C)=O)c(C(=O)O)c2)c1 [REF 9, 2-acetylamino-5-[2-(2,5-dimethoxy-phenyl)-ethyl]-benzoic acid, reference compound]",very weak inhibitory effect

# System: not listed separately
# Assay: Metabolic stability in human liver microsomes
# Assay type: in vitro ADME
# Conditions: human liver microsomes, 0.5 μM compound, 1 mg/mL protein, 1 mM NADPH, pH 7.4, 37° C.; "stable" = no degradation could be confirmed
# Method: The metabolic stability of the test compounds was determined using human liver microsomes. Incubations were performed with a compound concentration of 0.5 μM and a protein concentration of 1 mg/mL in 50 mM sodium phosphate buffer at physiological pH (7.4) and temperature (37° C.). The incubation mixture was preincubated at 37° C. prior to addition of NADPH (1 mM, final concentration). At several time points during 60 minutes, aliquots were removed and added to a 96 well plate placed on dry ice and deep-frozen. Samples were analyzed with LC-MS for concentration of parent compound. From the slope of the log [parent compound] vs. incubation time regression line, the in vitro half-life […] was determined. The intrinsic clearance (CLint) can be calculated using a modified Michaelis-Menten relationship, i.e., CLint=ln 2/t1/2. The CLint can then be converted to CL by using the well-stirred model of hepatic extraction. A value of 1.24 L/h/kg of the hepatic blood flow in man can be used. Results with respect to a number of compounds of the invention are reported as t1/2 (in minutes) in Table 1.
# as §1
Structure (SMILES),t1/2,half-life at 0.5 μM [h]
"CCC(=O)Nc1ccc(COc2ccc(C(F)(F)F)cc2C(F)(F)F)cc1C(=O)O [INV 1, 5-(2,4-Bis-trifluoromethyl-phenoxymethyl)-2-propionylamino-benzoic acid]",stable,
"CCC(=O)Nc1ccc(COc2ccc(F)cc2C(F)(F)F)cc1C(=O)O [INV 2, 5-(4-Fluoro-2-trifluoromethyl-phenoxymethyl)-2-propionylamino-benzoic acid]",,3.93
"CCC(=O)Nc1ccc(COc2ccc(Br)cc2C(F)(F)F)cc1C(=O)O [INV 3, 5-(4-Bromo-2-trifluoromethyl-phenoxymethyl)-2-propionylamino-benzoic acid]",,3.9
"CCC(=O)Nc1ccc(COc2ccc(C(F)(F)F)cc2Cl)cc1C(=O)O [INV 4, 5-(2-Chloro-4-trifluoromethyl-phenoxymethyl)-2-propionylamino-benzoic acid]",stable,
"CCC(=O)Nc1ccc(COc2ccc(F)cc2Cl)cc1C(=O)O [INV 5, 5-(2-Chloro-4-fluoro-phenoxymethyl)-2-propionylamino-benzoic acid]",,5.38
"CCC(=O)Nc1ccc(COc2ccc(Cl)cc2Cl)cc1C(=O)O [INV 6, 5-(2,4-Dichloro-phenoxymethyl)-2-propionylamino-benzoic acid]",,3.32
"CCC(=O)Nc1ccc(COc2ccc(C(F)(F)F)cc2Br)cc1C(=O)O [INV 7, 5-(2-Bromo-4-trifluoromethyl-phenoxymethyl)-2-propionylamino-benzoic acid]",,6.8
"CCC(=O)Nc1ccc(COc2ccc(F)cc2Br)cc1C(=O)O [INV 8, 5-(2-Bromo-4-fluoro-phenoxymethyl)-2-propionylamino-benzoic acid]",,5.33
"CCC(=O)Nc1ccc(COc2ccc(Cl)cc2Br)cc1C(=O)O [INV 9, 5-(2-Bromo-4-chloro-phenoxymethyl)-2-propionylamino-benzoic acid]",,2.8
"CCC(=O)Nc1ccc(COc2ccc(OC(F)(F)F)cc2Cl)cc1C(=O)O [INV 10, 5-(2-Chloro-4-trifluoromethoxy-phenoxymethyl)-2-propionylamino-benzoic acid]",stable,
"CCC(=O)Nc1ccc(/C=C/c2ccc(C(F)(F)F)cc2C(F)(F)F)cc1C(=O)O [INV 11, 5-[(E)-2-(2,4-Bis-trifluoromethyl-phenyl)-vinyl]-2-propionylamino-benzoic acid]",,8.15
"CCC(=O)Nc1ccc(/C=C/c2ccc(F)cc2C(F)(F)F)cc1C(=O)O [INV 12, 5-[(E)-2-(4-Fluoro-2-trifluoromethyl-phenyl)-vinyl]-2-propionylamino-benzoic acid]",,2.65
"CCC(=O)Nc1ccc(/C=C/c2ccc(Cl)cc2C(F)(F)F)cc1C(=O)O [INV 13, 5-[(E)-2-(4-Chloro-2-trifluoromethyl-phenyl)-vinyl]-2-propionylamino-benzoic acid]",,1.75
"CCC(=O)Nc1ccc(/C=C/c2ccc(F)cc2F)cc1C(=O)O [INV 14, 5-[(E)-2-(2,4-Difluoro-phenyl)-vinyl]-2-propionylamino-benzoic acid]",,3.55
"CCC(=O)Nc1ccc(/C=C/c2ccc(F)cc2Cl)cc1C(=O)O [INV 15, 5-[(E)-2-(2-Chloro-4-fluoro-phenyl)-vinyl]-2-propionylamino-benzoic acid]",,2.28
"CCC(=O)Nc1ccc(/C=C/c2ccc(Cl)cc2Cl)cc1C(=O)O [INV 16, 5-[(E)-2-(2,4-Dichloro-phenyl)-vinyl]-2-propionylamino-benzoic acid]",,1.83
"CCC(=O)Nc1ccc(COc2ccc(F)c(C(F)(F)F)c2)cc1C(=O)O [INV 17, 5-(4-Fluoro-3-trifluoromethyl-phenoxymethyl)-2-propionylamino-benzoic acid]",,1.73
"CCC(=O)Nc1ccc(COc2ccc(Cl)c(C(F)(F)F)c2)cc1C(=O)O [INV 18, 5-(4-Chloro-3-trifluoromethyl-phenoxymethyl)-2-propionylamino-benzoic acid]",,7.73
"CCC(=O)Nc1ccc(COc2ccc(F)c(Cl)c2)cc1C(=O)O [INV 19, 5-(3-Chloro-4-fluoro-phenoxymethyl)-2-propionylamino-benzoic acid]",,1.18
"CCC(=O)Nc1ccc(COc2ccc(Br)c(Cl)c2)cc1C(=O)O [INV 20, 5-(4-Bromo-3-chloro-phenoxymethyl)-2-propionylamino-benzoic acid]",,1.2
"CCC(=O)Nc1ccc(COc2ccc(OC(F)(F)F)c(Cl)c2)cc1C(=O)O [INV 21, 5-(3-Chloro-4-trifluoromethoxy-phenoxymethyl)-2-propionylamino-benzoic acid]",,2.8
"CCC(=O)Nc1ccc(COc2ccc(OC(F)(F)F)c(Br)c2)cc1C(=O)O [INV 22, 5-(3-Bromo-4-trifluoromethoxy-phenoxymethyl)-2-propionylamino-benzoic acid]",,3.3
"CCC(=O)Nc1ccc(/C=C/c2ccc(F)c(C(F)(F)F)c2)cc1C(=O)O [INV 23, 5-[(E)-2-(4-Fluoro-3-trifluoromethyl-phenyl)-vinyl]-2-propionylamino-benzoic acid]",,2.45
"CCC(=O)Nc1ccc(/C=C/c2ccc(Cl)c(C(F)(F)F)c2)cc1C(=O)O [INV 24, 5-[(E)-2-(4-Chloro-3-trifluoromethyl-phenyl)-vinyl]-2-propionylamino-benzoic acid]",,5.75
"CCC(=O)Nc1ccc(/C=C/c2ccc(C(F)(F)F)c(F)c2)cc1C(=O)O [INV 25, 5-[(E)-2-(3-Fluoro-4-trifluoromethyl-phenyl)-vinyl]-2-propionylamino-benzoic acid]",stable,
"CCC(=O)Nc1ccc(/C=C/c2ccc(F)c(Cl)c2)cc1C(=O)O [INV 26, 5-[(E)-2-(3-Chloro-4-fluoro-phenyl)-vinyl]-2-propionylamino-benzoic acid]",,1.22
